Experimental data taken from ChEMBL document CHEMBL1159369, “Isolation, structure, and HIV-1 integrase inhibitory activity of Cytosporic acid, a fungal metabolite produced by a Cytospora sp” (J Nat Prod, 2003).
Activity calls are given as the source filed them. The calls are words filed in the database; no cut-off is given here.

Key:
[1] = target: Human immunodeficiency virus type 1 integrase (Human immunodeficiency virus 1, UniProt Q7ZJM1); test: Inhibition of HIV1 integrase strand transfer activity
Human immunodeficiency virus type 1 integrase, sequence (Q7ZJM1 whole entry): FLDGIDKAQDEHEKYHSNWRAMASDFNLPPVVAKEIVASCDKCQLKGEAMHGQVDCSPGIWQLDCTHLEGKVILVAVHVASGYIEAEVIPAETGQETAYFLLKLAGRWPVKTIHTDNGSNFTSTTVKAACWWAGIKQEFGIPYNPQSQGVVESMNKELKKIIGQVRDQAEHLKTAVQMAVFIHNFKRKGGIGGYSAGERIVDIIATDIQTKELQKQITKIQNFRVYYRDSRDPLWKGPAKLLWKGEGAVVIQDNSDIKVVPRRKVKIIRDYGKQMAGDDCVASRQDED

[2] = target: Human immunodeficiency virus type 1 integrase (Human immunodeficiency virus 1) (UniProt Q7ZJM1); test: Inhibition of HIV1 integrase strand transfer activity at 200 uM
Human immunodeficiency virus type 1 integrase (Human immunodeficiency virus 1), sequence (Q7ZJM1 as listed by the source): as the sequence (Q7ZJM1 whole entry) above

CCCC[C@@H](C)C1=C(O)C(=O)[C@@H]2C[C@H](C)C[C@H](C(=O)O)[C@H]2[C@]1(C)C(=O)CCO [CYTOSPORIC ACID]
IC50 [1]: 20 µM

CCCCCC[C@@H](C)C1=C(O)C(=O)[C@@H]2[C@H](O)[C@H](C)C[C@H](O)[C@H]2[C@]1(C)C(=O)/C=C\O [AUSTRALIFUNGIN]
IC50 [1]: 20 µM

CCCCCC[C@@H](C)C1=C(O)C(=O)[C@@H]2[C@H](O)[C@H](C)C[C@H](O)[C@H]2[C@]1(C)C(=O)CCO
Activity [2]: inactive
